Measurements reported in patent US20200055883A1, “CYCLIC DI-NUCLEOTIDES DERIVATIVE FOR THE TREATMENT OF CANCER” (Eisai R&D Management Co., Ltd., priority 2017, published 2020).
Where two headings read alike, the source gives them in different places. Values belong to the compound of their own block, whether it stands above or below them.

Experiments:
[1] = biological target: AQ Human STING (Homo sapiens, UniProt Q86WV6, G230A/H232R/R293Q); experiment: STING variant specific reporter assay, AQ-STING (THP1-Dual KO-STING cells); conditions: ammonium salt form of each compound
[2] = biological target: WT Human STING (Homo sapiens, UniProt Q86WV6, H232R); experiment: STING variant specific reporter assay, WT-STING (THP1-Dual KO-STING cells); conditions: Human STING EC50 (μM) WT, ammonium salt form of each compound
[3] = biological target: Human STING HAQ (Homo sapiens, UniProt Q86WV6, G230A/H232R/R293Q/R71H); experiment: HAQ STING agonist activity reporter assay (THP1-Dual cells)
[4] = biological target: REF Human STING (Homo sapiens, UniProt Q86WV6); experiment: STING variant specific reporter assay, REF-STING (THP1-Dual KO-STING cells)
[5] = Human STING EC50 (μM) AQ, Table 5
[6] = Human STING EC50 (μM) HAQ, Table 5, ammonium salt form of each compound, 20 hrs
[7] = hSTING EC50 (μM) HAQ, Table 6, ammonium salt form, except Compounds 26, 33, 34 tested as bis-TEA salts
[8] = Human STING EC50 (μM) HAQ, Table 4, ammonium salt form of each compound, 20 hrs
[9] = Human STING EC50 (μM) AQ, Table 4
[10] = hSTING EC50 (μM) HAQ, Table 8, ammonium salt form of each compound

AQ Human STING, sequence (Q86WV6 whole entry G230A/H232R/R293Q): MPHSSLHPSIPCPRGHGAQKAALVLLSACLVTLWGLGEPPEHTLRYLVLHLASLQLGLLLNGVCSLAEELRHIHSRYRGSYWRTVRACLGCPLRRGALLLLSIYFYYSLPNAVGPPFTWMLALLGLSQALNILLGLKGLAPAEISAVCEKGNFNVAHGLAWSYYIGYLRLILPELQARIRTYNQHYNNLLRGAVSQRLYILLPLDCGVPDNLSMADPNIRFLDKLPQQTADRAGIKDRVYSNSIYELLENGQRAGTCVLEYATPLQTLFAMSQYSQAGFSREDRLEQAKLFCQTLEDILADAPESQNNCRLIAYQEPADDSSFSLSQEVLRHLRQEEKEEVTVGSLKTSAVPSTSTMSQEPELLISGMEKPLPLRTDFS
Human STING HAQ, sequence (Q86WV6 whole entry R71H/G230A/H232R/R293Q): as the sequence (Q86WV6 whole entry G230A/H232R/R293Q) above, with R71H counted along it
WT Human STING, sequence (Q86WV6 whole entry H232R): as the sequence (Q86WV6 whole entry G230A/H232R/R293Q) above, with A230G, Q293R counted along it
REF Human STING, sequence (Q86WV6 whole entry): as the sequence (Q86WV6 whole entry G230A/H232R/R293Q) above, with A230G, R232H, Q293R counted along it

EC50 [1, 5]: 81 µM
EC50 ([2]; Table 5): 68.7 µM
EC50 [3, 6]: 69.7 µM
EC50 [4]: > 100 µM
Compound: O=P1(S)OC[C@H]2O[C@@H]3[C@H](F)[C@@H]2OP(=O)(S)OC[C@H]2OC([C@H](F)[C@@H]2O1)n1cnc2c(ncnc21)NCC/C=C/CNc1ncnc2c1ncn23 (single isomer, unassigned) [Compound 8]

EC50 [3, 6]: 6.8 µM
Compound: O=P1(S)OC[C@H]2O[C@@H]3[C@H](F)[C@@H]2OP(=O)(S)OC[C@H]2OC([C@H](F)[C@@H]2O1)n1cnc2c(ncnc21)NCC/C=C/CNc1ncnc2c1ncn23 (single isomer, unassigned) [Compound 11]

EC50 [3, 6]: 8.2 µM
Compound: O=P1(S)OC[C@H]2O[C@@H]3[C@H](F)[C@@H]2OP(=O)(S)OC[C@H]2OC([C@H](F)[C@@H]2O1)n1cnc2c(ncnc21)NCC/C=C/CNc1ncnc2c1ncn23 (single isomer, unassigned) [Compound 12]

EC50 [3, 7]: 2.3 µM
Compound: O=P1(S)OC[C@H]2O[C@@H]3[C@H](F)[C@@H]2OP(=O)(S)OC[C@H]2O[C@H]([C@H](F)[C@@H]2O1)n1cnc2c(ncnc21)NC/C=C/COc1ncnc2c1ncn23 (single isomer, unassigned) [Compound 18]

EC50 [3, 7]: 94.1 µM
Compound: O=P1(S)OC[C@H]2O[C@@H]3[C@H](F)[C@@H]2OP(=O)(S)OC[C@H]2O[C@H]([C@H](F)[C@@H]2O1)n1cnc2c(ncnc21)NC/C=C/COc1ncnc2c1ncn23 (single isomer, unassigned) [Compound 19]

EC50 [3, 7]: 2.8 µM
Compound: O=P1(S)OC[C@H]2O[C@@H]3[C@H](F)[C@@H]2OP(=O)(S)OC[C@H]2O[C@H]([C@H](F)[C@@H]2O1)n1cnc2c(ncnc21)NC/C=C/COc1ncnc2c1ncn23 (single isomer, unassigned) [Compound 20]

Compound: Nc1nc2c3ncn(c3n1)[C@@H]1O[C@@H]3COP(O)(=S)O[C@H]4[C@@H](F)[C@@H](O[C@@H]4COP(O)(=S)O[C@H]3[C@H]1F)n1cnc3c(ncnc31)NC/C=C/CO2 (single isomer, unassigned) [Compound 21]
EC50 ([3]; hSTING EC50 (μM) HAQ): 83.3 µM

Compound: Nc1nc2c3ncn(c3n1)[C@@H]1O[C@@H]3COP(O)(=S)O[C@H]4[C@@H](F)[C@@H](O[C@@H]4COP(O)(=S)O[C@H]3[C@H]1F)n1cnc3c(ncnc31)NC/C=C/CO2 (single isomer, unassigned) [Compound 22]
EC50 ([3]; hSTING EC50 (μM) HAQ): 41.2 µM

Compound: O=[P@]1(S)OC[C@H]2OC3[C@H](F)[C@@H]2O[P@](=O)(S)OC[C@H]2O[C@H]([C@H](F)[C@@H]2O1)n1cnc2c(ncnc21)NCC1NC1CNc1ncnc2c1ncn23 (single isomer, unassigned) [Compound 35]
EC50 [3, 7]: 44.5 µM

Compound: O=[P@]1(S)OC[C@H]2OC3[C@H](F)[C@@H]2O[P@](=O)(S)OC[C@H]2O[C@H]([C@H](F)[C@@H]2O1)n1cnc2c(ncnc21)NCC1NC1CNc1ncnc2c1ncn23 (single isomer, unassigned) [Compound 36]
EC50 [3, 7]: 31.4 µM

EC50 [1, 5]: 82.2 µM
EC50 ([2]; Table 5): > 100 µM
EC50 [3, 6]: 87.2 µM
Compound: O=P1(S)OC[C@H]2O[C@@H]3[C@H](F)[C@@H]2OP(=O)(S)OC[C@H]2OC([C@H](F)[C@@H]2O1)n1cnc2c(ncnc21)NCC/C=C/CNc1ncnc2c1ncn23 (single isomer, unassigned) [Compound 37]

EC50 [1, 5]: 9 µM
EC50 ([2]; Table 5): 5.7 µM
EC50 [3, 6]: 10.5 µM
EC50 [4]: 42 µM
Compound: O=[P@]1(S)OC[C@H]2OC3[C@H](F)[C@@H]2O[P@](=O)(S)OC[C@H]2O[C@H]([C@H](F)[C@@H]2O1)n1cnc2c(ncnc21)NCCCCNc1ncnc2c1ncn23 [Compound 6]

EC50 [1, 5]: 30.9 µM
EC50 ([2]; Table 5): 18 µM
EC50 [3, 6]: 39.2 µM
EC50 [4]: 31.7 µM
Compound: O=P1(O)OC[C@H]2O[C@@H]3[C@H](F)[C@@H]2OP(=O)(O)OC[C@H]2OC([C@H](F)[C@@H]2O1)n1cnc2c(ncnc21)NC/C=C/CNc1ncnc2c1ncn23 [Compound 9]

EC50 [3, 8]: 26.7 µM
Compound: O=[P@]1(S)OC[C@H]2OC3[C@H](O)[C@@H]2O[P@](=O)(S)OC[C@H]2O[C@H]([C@H](O1)[C@@H]2O)n1cnc2c(ncnc21)NC/C=C/CNc1ncnc2c1ncn23 [Compound 13]

EC50 ([1]; read-out: Human STING EC50 (μM) AQ, Table 4): > 100 µM
EC50 ([2]; Table 4): 69.8 µM
EC50 [3, 8]: 58.2 µM
EC50 ([4]; read-out: Human STING EC50 (μM) REF, Table 4, ammonium salt form of each compound): > 100 µM
Compound: O=[P@@]1(S)OC[C@H]2OC3[C@H](O)[C@@H]2O[P@](=O)(S)OC[C@H]2O[C@H]([C@H](O1)[C@@H]2O)n1cnc2c(ncnc21)NC/C=C/CNc1ncnc2c1ncn23 [Compound 14]

EC50 [1, 9]: 13.1 µM
EC50 ([2]; Table 4): 11.6 µM
EC50 [3, 8]: 24.7 µM
EC50 [4]: 66.7 µM
Compound: O=[P@]1(S)OC[C@H]2OC3[C@H](F)[C@@H]2O[P@](=O)(S)OC[C@H]2O[C@H]([C@H](O1)[C@@H]2O)n1cnc2c(ncnc21)NC/C=C/CNc1ncnc2c1ncn23 [Compound 15]

EC50 [1, 9]: 20.4 µM
EC50 ([2]; Table 4): 25.7 µM
EC50 [3, 8]: 28.8 µM
EC50 [4]: 66.7 µM
Compound: O=[P@@]1(S)OC[C@H]2OC3[C@H](F)[C@@H]2O[P@](=O)(S)OC[C@H]2O[C@H]([C@H](O1)[C@@H]2O)n1cnc2c(ncnc21)NC/C=C/CNc1ncnc2c1ncn23 [Compound 16]

Compound: Nc1nc2c3ncn(c3n1)[C@@H]1O[C@@H]3COP(O)(=S)O[C@H]4[C@@H](F)[C@@H](O[C@@H]4COP(O)(=S)O[C@H]3[C@H]1F)n1cnc3c(ncnc31)NC/C=C/CO2 (stereo partly shown) [Compound 23]
EC50 ([3]; hSTING EC50 (μM) HAQ): 62.3 µM

EC50 [3, 7]: 2.3 µM
Compound: O=[P@@]1(S)OC[C@H]2O[C@@H]3[C@H](F)[C@@H]2O[P@](=O)(S)OC[C@H]2OC([C@H](F)[C@@H]2O1)n1cnc2c(ncnc21)OC/C=C/COc1ncnc2c1ncn23 [Compound 26]

Compound: O=P1(O)OC[C@H]2OC3[C@H](F)[C@@H]2O[P@@](O)(=S)OC[C@H]2O[C@H]([C@H](F)[C@@H]2O1)n1cnc2c(ncnc21)NC/C=C/CNc1ncnc2c1ncn23 [Compound 27]
EC50 ([3]; hSTING EC50 (μM) HAQ): 9.8 µM

Compound: O=P1(O)OC[C@H]2OC3[C@H](F)[C@@H]2O[P@](O)(=S)OC[C@H]2O[C@H]([C@H](F)[C@@H]2O1)n1cnc2c(ncnc21)NC/C=C/CNc1ncnc2c1ncn23 [Compound 28]
EC50 ([3]; hSTING EC50 (μM) HAQ): 10.2 µM

EC50 [3, 7]: 0.62 µM
Compound: O=[P@]1(S)OC[C@H]2OC3[C@H](F)[C@@H]2O[P@](=O)(S)OC[C@H]2O[C@H]([C@H](F)[C@@H]2O1)n1cnc2c(ncnc21)NCC#CCNc1ncnc2c1ncn23 [Compound 29]

EC50 ([3]; hSTING EC50 (μM) HAQ, Table 7, ammonium salt form of each compound): 20.2 µM
Compound: O=P1(S)OC[C@H]2OC3[C@H](OP(=O)(S)OC[C@H]4O[C@H]([C@H](O1)[C@@H]4O)n1cnc4c(ncnc41)NC/C=C/CNc1ncnc4c1ncn43)[C@@H]2O (stereo partly shown) [Compound 31]

EC50 [3, 7]: 15.7 µM
EC50 ([4]; read-out: hSTING EC50 (μM) REF, Table 6, ammonium salt form, except Compounds 26, 33, 34 tested as bis-TEA salts): > 100 µM
Compound: O=[P@]1(S)OC[C@H]2OC3[C@H](F)[C@@H]2O[P@](=O)(S)OC[C@H]2O[C@H]([C@H](F)[C@@H]2O1)n1cnc2c(ncnc21)NC[C@H](O)[C@@H](O)CNc1ncnc2c1ncn23 [Compound 32]

EC50 [3, 7]: 21.5 µM
Compound: O=[P@]1(S)OC[C@H]2OC3[C@H](F)[C@@H]2O[P@](=O)(S)OC[C@H]2O[C@H]([C@H](F)[C@@H]2O1)n1cnc2c(ncnc21)CC/C=C/CCc1ncnc2c1ncn23 [Compound 33]

EC50 [3, 7]: 2.3 µM
Compound: O=[P@@]1(S)OC[C@H]2O[C@@H]3[C@H](F)[C@@H]2O[P@](=O)(S)OC[C@H]2OC([C@H](F)[C@@H]2O1)n1cnc2c(ncnc21)CC/C=C/CCc1ncnc2c1ncn23 [Compound 34]

EC50 [3, 10]: 79.9 µM
Compound: O=[P@]1(S)N[C@@H]2[C@H]3CO[P@](=O)(S)N[C@H]4[C@@H](O)[C@@H](O[C@@H]4CO1)n1cnc4c(ncnc41)NC/C=C/CNc1ncnc4c1ncn4C(O3)[C@@H]2O [Compound 38]

EC50 [3, 10]: 29.6 µM
Compound: O=P1(S)N[C@@H]2[C@H]3COP(=O)(S)N[C@H]4[C@@H](O)[C@@H](O[C@@H]4CO1)n1cnc4c(ncnc41)NC/C=C/CNc1ncnc4c1ncn4C(O3)[C@@H]2O (stereo partly shown) [Compound 39]
